According to PubChem BioAssay (NCI):
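Five concentrations, 48 hours, 96-well plates. The concentration for 50% growth inhibition is given as GI50. TGI marks complete inhibition of growth.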 Where a SMILES comes first, the peptide text is derived from it. The star is where a group is joined. Boc = CC(C)(C)OC(=O)*; nBu = CCCC*

Legend:
Assay in all cases: DTP human tumour cell line panel, 48 h
M14 melanoma = system: M14 melanoma
OVCAR-3 ovarian = system: OVCAR-3 ovarian
PC-3 prostate = system: PC-3 prostate
MDA-N = system: MDA-N
SR leukemia = system: SR leukemia
HCT-116 colon = system: HCT-116 colon
A549 NSCLC = system: A549 NSCLC
A498 renal = system: A498 renal
IGROV1 ovarian = system: IGROV1 ovarian
CCRF-CEM leukemia = system: CCRF-CEM leukemia

SMILES: N#C/C(=C(/O)CCl)c1nc2ccccc2o1
- TGI (M14 melanoma): 21 µM
- TGI (OVCAR-3 ovarian): 20.3 µM
- TGI (PC-3 prostate): 22.8 µM
- TGI (MDA-N): 15.8 µM
- TGI (SR leukemia): 15 µM
- TGI (HCT-116 colon): 29.2 µM
- TGI (A549 NSCLC): 34.8 µM
- TGI (A498 renal): 4.4 µM
- TGI (IGROV1 ovarian): 4.09 µM
- TGI (CCRF-CEM leukemia): 90.7 µM

SMILES: CC1(C)OC[C@@H]([C@@]2(COC(c3ccccc3)(c3ccccc3)c3ccccc3)CC=CC(=O)O2)O1
- TGI (M14 melanoma): > 100 µM
- TGI (OVCAR-3 ovarian): > 100 µM
- TGI (PC-3 prostate): > 100 µM
- TGI (SR leukemia): > 100 µM
- TGI (HCT-116 colon): > 100 µM
- TGI (A549 NSCLC): > 100 µM
- TGI (A498 renal): 71.4 µM
- TGI (CCRF-CEM leukemia): 96.7 µM

SMILES: Oc1ccccc1C=Nc1ccc(-c2nc3ccccc3s2)cc1
- TGI (M14 melanoma): > 100 µM
- TGI (OVCAR-3 ovarian): 88 µM
- TGI (PC-3 prostate): 56.8 µM
- TGI (MDA-N): > 100 µM
- TGI (SR leukemia): > 100 µM
- TGI (HCT-116 colon): > 100 µM
- TGI (A549 NSCLC): > 100 µM
- TGI (A498 renal): 52.4 µM
- TGI (IGROV1 ovarian): > 100 µM
- TGI (CCRF-CEM leukemia): > 100 µM

SMILES: O=C(Cc1nc2ccccc2[nH]c1=O)c1c[nH]c2ccccc12
- TGI (M14 melanoma): > 100 µM
- TGI (OVCAR-3 ovarian): 68 µM
- TGI (PC-3 prostate): 31.3 µM
- TGI (MDA-N): > 100 µM
- TGI (SR leukemia): > 100 µM
- TGI (HCT-116 colon): 56.2 µM
- TGI (A549 NSCLC): > 100 µM
- TGI (A498 renal): 51.9 µM
- TGI (IGROV1 ovarian): > 100 µM
- TGI (CCRF-CEM leukemia): > 100 µM

SMILES: Cc1cc(-c2nc3c(F)cccc3s2)ccc1N
- TGI (M14 melanoma): > 100 µM
- TGI (OVCAR-3 ovarian): > 100 µM
- TGI (PC-3 prostate): > 100 µM
- TGI (MDA-N): > 100 µM
- TGI (SR leukemia): > 100 µM
- TGI (HCT-116 colon): > 100 µM
- TGI (A549 NSCLC): > 100 µM
- TGI (A498 renal): > 100 µM
- GI50 (IGROV1 ovarian): 22.7 µM
- TGI (IGROV1 ovarian): > 100 µM
- TGI (CCRF-CEM leukemia): > 100 µM

SMILES: C=C1C(O)C2(O)OCC34C(CC5C(C)=CC(=O)C(O)C5(C)C23)OC(=O)C(OC(=O)C/C=C/CCCCCCCC)C14 (stereo not given)
- TGI (HCT-116 colon): 0.116 µM
- TGI (A549 NSCLC): 0.0918 µM
- TGI (A498 renal): 0.0324 µM
- TGI (IGROV1 ovarian): 0.0303 µM
- TGI (CCRF-CEM leukemia): 0.166 µM

SMILES: COC(=O)/C=C\C(C#N)(C#N)N=Cc1ccc(OC)cc1
- TGI (M14 melanoma): 8.77 µM
- TGI (OVCAR-3 ovarian): 6.64 µM
- TGI (PC-3 prostate): 19.6 µM
- TGI (MDA-N): 16.5 µM
- TGI (SR leukemia): 3.99 µM
- TGI (HCT-116 colon): 3.77 µM
- TGI (A549 NSCLC): 38.3 µM
- TGI (A498 renal): 33 µM
- TGI (IGROV1 ovarian): 28.7 µM
- TGI (CCRF-CEM leukemia): 2.53 µM

SMILES: COc1ccc(C2C3CCc4ccccc4C3=NN2S(=O)(=O)c2cccc(C(=O)O)c2OC)cc1 (stereo not given)
- TGI (M14 melanoma): > 100 µM
- TGI (OVCAR-3 ovarian): 68.6 µM
- TGI (PC-3 prostate): > 100 µM
- TGI (MDA-N): 7.25 µM
- TGI (SR leukemia): > 100 µM
- TGI (HCT-116 colon): > 100 µM
- TGI (A549 NSCLC): > 100 µM
- TGI (IGROV1 ovarian): > 100 µM
- TGI (CCRF-CEM leukemia): 81.7 µM

SMILES: CC(C)CC(N)C(=O)NC(C(=O)NC(CCCNC(=N)N)C(=O)NC(CS)C(=O)NC1CSCC(C(=O)NC(Cc2ccccc2)C(=O)NC(C(=O)NC(CCCNC(=N)N)C(=O)O)C(C)C)NC(=O)C2CCCN2C(=O)C(CCCCN)NC(=O)C2CCCN2C(=O)C2CCCN2C(=O)C(Cc2ccc(O)cc2)NC(=O)C(CO)NC(=O)C(CCCCN)NC(=O)C(C(C)O)NC(=O)C(Cc2c[nH]c3ccccc23)NC1=O)C(C)C (stereo not given)
- TGI (M14 melanoma): > 25 µM
- TGI (OVCAR-3 ovarian): > 25 µM
- TGI (PC-3 prostate): > 25 µM
- TGI (MDA-N): > 25 µM
- TGI (SR leukemia): > 25 µM
- TGI (HCT-116 colon): > 25 µM
- TGI (A549 NSCLC): > 25 µM
- TGI (A498 renal): > 25 µM
- TGI (IGROV1 ovarian): > 25 µM
- TGI (CCRF-CEM leukemia): > 25 µM

SMILES: COC(=O)c1c(O)ccc2c1c1cc3ccccc3c(O)c1n2CCc1ccc(OC)c(OC)c1
- TGI (M14 melanoma): > 100 µM
- TGI (OVCAR-3 ovarian): > 100 µM
- TGI (PC-3 prostate): > 100 µM
- TGI (MDA-N): > 100 µM
- TGI (SR leukemia): > 100 µM
- TGI (HCT-116 colon): > 100 µM
- TGI (A549 NSCLC): > 100 µM
- TGI (A498 renal): > 100 µM
- TGI (IGROV1 ovarian): > 100 µM
- TGI (CCRF-CEM leukemia): > 100 µM

SMILES: Cc1c(-c2ccccc2)[nH]c2cn[nH]c(=O)c12
- TGI (M14 melanoma): > 100 µM
- TGI (OVCAR-3 ovarian): > 100 µM
- TGI (PC-3 prostate): > 100 µM
- TGI (MDA-N): > 100 µM
- TGI (SR leukemia): > 100 µM
- TGI (HCT-116 colon): > 100 µM
- TGI (A549 NSCLC): > 100 µM
- TGI (A498 renal): > 100 µM
- TGI (IGROV1 ovarian): > 100 µM
- TGI (CCRF-CEM leukemia): > 100 µM

SMILES: CCCCOc1ccc(CC(NC(=O)OC(C)(C)C)C(=O)NC(C)C(=O)NC(Cc2ccccc2)C(=O)NCC(N)=O)cc1 (stereo not given) (Boc-Y(nBu)AFG-NH2; configuration not given here)
- TGI (M14 melanoma): > 100 µM
- TGI (OVCAR-3 ovarian): > 100 µM
- TGI (PC-3 prostate): > 100 µM
- TGI (MDA-N): > 100 µM
- TGI (HCT-116 colon): > 100 µM
- TGI (A549 NSCLC): > 100 µM
- TGI (A498 renal): > 100 µM
- TGI (IGROV1 ovarian): > 100 µM
- TGI (CCRF-CEM leukemia): > 100 µM

SMILES: Cc1ccc(-c2cn3c(nc4ccccc43)c(/C=C/c3ccco3)n2)cc1
- TGI (M14 melanoma): > 100 µM
- TGI (OVCAR-3 ovarian): > 100 µM
- TGI (MDA-N): > 100 µM
- TGI (SR leukemia): 89 µM
- TGI (HCT-116 colon): > 100 µM
- TGI (A549 NSCLC): > 100 µM
- TGI (A498 renal): > 100 µM
- TGI (IGROV1 ovarian): > 100 µM

SMILES: C/C(C=O)=C/[C@@]1(C)O[C@@H](C)[C@@](C)(O)[C@@H]1O
- TGI (M14 melanoma): > 100 µM
- TGI (OVCAR-3 ovarian): > 100 µM
- TGI (PC-3 prostate): > 100 µM
- TGI (MDA-N): > 100 µM
- TGI (SR leukemia): 7.12 µM
- TGI (HCT-116 colon): > 100 µM
- TGI (A549 NSCLC): > 100 µM
- TGI (A498 renal): > 100 µM
- TGI (IGROV1 ovarian): > 100 µM
- TGI (CCRF-CEM leukemia): > 100 µM

SMILES: C#C[C@]1(O)CC[C@H]2[C@@H]3CCc4cc(O)ccc4[C@H]3CC[C@@]21C
- TGI (OVCAR-3 ovarian): > 100 µM
- TGI (SR leukemia): > 100 µM
- TGI (HCT-116 colon): > 100 µM
- TGI (A549 NSCLC): > 100 µM
- TGI (A498 renal): 77.4 µM
- TGI (IGROV1 ovarian): > 100 µM
- TGI (CCRF-CEM leukemia): > 100 µM

SMILES: O=C(Nc1ccccc1)Oc1ccc(C(=S)Nc2ccc(Br)cc2)cc1
- TGI (OVCAR-3 ovarian): 52.8 µM
- TGI (PC-3 prostate): 89.8 µM
- TGI (MDA-N): 47.2 µM
- TGI (SR leukemia): 50.8 µM
- TGI (HCT-116 colon): 37.2 µM
- TGI (A498 renal): 54.5 µM
- TGI (IGROV1 ovarian): 28 µM
- TGI (CCRF-CEM leukemia): 28.5 µM
